Assays:
Type in all cases: in vivo
Conditions in all cases: 200 L/ha water, isoxaben 40, flufenacet 200, diflufenican 100 g ai/ha, observed mean
[1] = tested on: STEME (Stellaria media (L.) Vill., common chickweed); assay: Trial 1: small plot field experiment in winter wheat, foliar applied, visual % control of STEME
Source text: (§1) Results in Tables 1 and 2 are for foliar applied compositions in small plot research experiments to evaluate the efficacy of the compositions in winter wheat. Application water volume was 200 liters per hectare (L/ha). Crop stage at time of application was 12-13. The values reported are means. […] Colby's equation was used to determine the herbicidal effects expected from the mixtures (Colby, S. R. Calculation of the synergistic and antagonistic response of herbicide combinations. Weeds 1967, 15, 20-22.). More specifically, the following equation was used to calculate the expected activity of mixtures containing two active ingredients, A and B:
(§2) A=observed efficacy of active ingredient A at the same concentration as used in the mixture;
(§3) B=observed efficacy of active ingredient B (or combination B) at the same concentration as used in the mixture.

[2] = tested on: BRSNW (Brassica napus, winter oilseed rape); assay: Trial 1: small plot field experiment in winter wheat, foliar applied, visual % control of BRSNW
Source text: as §1, §2, §3

[3] = tested on: GERDI (Geranium dissectum, cutleaf geranium); assay: Trial 1: small plot field experiment in winter wheat, foliar applied, visual % control of GERDI
Source text: as §1, §2, §3

[4] = tested on: BRSNW (Brassica napus, winter oilseed rape); assay: Trial 2: small plot field experiment in winter wheat, foliar applied, visual % control of BRSNW
Source text: as §1, §2, §3

SMILES	VISUAL % CONTROL OF STEME 28 DAT, Ob [1] [e %]	VISUAL % CONTROL OF BRSNW 28 DAT, Ob [2] [d %]	VISUAL % CONTROL OF GERDI 28 DAT, Ob [3] [d %]	VISUAL % CONTROL OF BRSNW 13 DAT, Ob [4]	VISUAL % CONTROL OF BRSNW 25 DAT, Ob [4]
CC(C)N(C(=O)COc1nnc(C(F)(F)F)s1)c1ccc(F)cc1 [flufenacet, N-(4-fluorophenyl)-N-(1-methylethyl)-2-[[5-(trifluoromethyl)-1,3,4-thiadiazol-2-yl]oxy]acetamide]	0	0	0	43 cd %	55 b %
CCC(C)(CC)c1cc(NC(=O)c2c(OC)cccc2OC)on1 [isoxaben, N-[3-(1-ethyl-1-methylpropyl)isoxazol-5-yl]-2,6-dimethoxybenzamide]	0	0	0	22 de %	23 cd %
